The source of these data is patent publication US5120751A, “Benzoylphenyl pyridinylthiazolidine compounds as platelet activating antagonists” (Abbott Laboratories, priority 1991, dated 1992).

Counter-ions that a name gives are not always drawn.

This assay deals with PAF receptor (Oryctolagus cuniculus, UniProt G1TEI7). In words: PAF receptor binding assay: inhibition of specific [3H]C18-PAF binding to rabbit platelet membranes. As to conditions: 0.6 nM [3H]C18-PAF, 60 minutes at 22-23 °C, pH 7.0, Ki calculated from IC50 (Cheng and Prusoff).
Chain of PAF receptor (G1TEI7 1-342): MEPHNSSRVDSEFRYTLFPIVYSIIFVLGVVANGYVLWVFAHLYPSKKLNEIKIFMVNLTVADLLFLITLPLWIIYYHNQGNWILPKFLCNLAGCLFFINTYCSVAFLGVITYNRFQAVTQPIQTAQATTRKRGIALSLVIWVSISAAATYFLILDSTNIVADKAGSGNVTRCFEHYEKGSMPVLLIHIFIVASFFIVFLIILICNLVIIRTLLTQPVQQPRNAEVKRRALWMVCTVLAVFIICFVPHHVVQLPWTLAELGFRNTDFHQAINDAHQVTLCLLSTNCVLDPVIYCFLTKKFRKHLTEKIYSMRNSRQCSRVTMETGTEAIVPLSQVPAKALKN
As a reminder, the Ki is the equilibrium dissociation constant of an inhibitor or competing ligand from its target. Take `O=C(c1ccccc1)c1cccc(NC(=O)C2CSC(c3cccnc3)N2)c1` (stereo not drawn) [Example 1, N-(3-benzoylphenyl) 2-(3-pyridinyl)-4-thiazolidine carboxamide]: the Ki is 0.005 µM. In the case of `CC(C)(C)OC(=O)N1C(C(=O)Nc2cccc(C(=O)c3ccccc3)c2)CSC1c1cccnc1` (stereo not drawn) [Example 2, N-(3-benzoylphenyl) 2-(3-pyridinyl)-3-tert-butoxycarbonyl-4-thiazolidinecarboxamide], the Ki was 100 µM. In the case of `COc1cc(C(=O)c2cccc(NC(=O)C3CSC(c4cccnc4)N3)c2)cc(OC)c1OC` (stereo not drawn) [Example 4, N-[3-(3,4,5-trimethoxybenzoyl)phenyl] 2-(3-pyridinyl)-4-thiazolidinecarboxamide dihydrochloride] it was 0.001 µM; in that of `COc1ccc(C(=O)c2cccc(NC(=O)C3CSC(c4cccnc4)N3)c2)cc1` (stereo not drawn) [Example 5, N-[3-(4-methoxybenzoyl)phenyl] 2-(3-pyridinyl)-4-thiazolidinecarboxamide dihydrochloride], 0.034 µM; in that of `O=C(c1cccc(NC(=O)C2CSC(c3cccnc3)N2)c1)c1ccc2c(c1)OCO2` (stereo not drawn) [Example 6, N-[3-(3,4-methylenedioxybenzoyl)phenyl] 2-(3-pyridinyl)-4-thiazolidinecarboxamide dihydrochloride], 0.033 µM. The same measure for `COc1cc(OC)cc(C(=O)c2cccc(NC(=O)C3CSC(c4cccnc4)N3)c2)c1` (stereo not drawn) [Example 7, N-[3-(3,5-dimethoxybenzoyl)phenyl] 2-(3-pyridinyl)-4-thiazolidinecarboxamide dihydrochloride]: 0.002 µM. In the case of `COc1ccc(C(=O)c2cccc(NC(=O)C3CSC(c4cccnc4)N3)c2)cc1OC` (stereo not drawn) [Example 8, N-[3-(3,4-dimethoxybenzoyl)phenyl] 2-(3-pyridinyl)-4-thiazolidinecarboxamide dihydrochloride] it was 0.006 µM; in that of `O=C(c1ccccc1)c1cccc(NC(=O)C2CSC(c3cccnc3)S2)c1` (stereo not drawn) [Example 9, N-(3-benzoylphenyl) 2-(3-pyridinyl)-4-dithiolanecarboxamide], 0.023 µM.

With `COc1cc(C(=O)c2cccc(NC(=O)C3CSC(c4cccnc4)S3)c2)cc(OC)c1OC` (stereo not drawn) [Example 10, N-[3-(3,4,5-trimethoxybenzoyl)phenyl] 2-(3-pyridinyl)-4-dithiolanecarboxamide], the Ki is 0.57 µM.

Consider `O=CN1C(C(=O)Nc2cccc(C(=O)c3ccccc3)c2)CSC1c1cccnc1` (stereo not drawn) [Example 11, N-(3-benzoylphenyl) 2-(3-pyridinyl)-3-formyl-4-thiazolidinecarboxamide], for which the Ki was 0.5 µM. In the case of `CNC(=O)N1C(C(=O)Nc2cccc(C(=O)c3ccccc3)c2)CSC1c1cccnc1` (stereo not drawn) [Example 12, N-(3-benzoylphenyl) 2-(3-pyridinyl)-3-(N-methylcarbamoyl)-4-thiazolidinecarboxamide] it was 0.7 µM; in that of `O=C(CC1CSC(c2cccnc2)N1)Nc1cccc(C(=O)c2ccccc2)c1` (stereo not drawn) [Example 13, N-(3-benzoylphenyl) 2-(3-pyridinyl)-thiazolid-4-ylacetamide], 5.8 µM.

On to `NC(=O)N1C(CC(=O)Nc2cccc(C(=O)c3ccccc3)c2)CSC1c1cccnc1` (stereo not drawn) [Example 14, N-(3-benzoylphenyl) 2-(3-pyridinyl)-3-carbamoylthiazolid-4-ylacetamide], for which the Ki was 0.15 µM. The same measure for `CN(C(=O)C1CSC(c2cccnc2)N1)c1cccc(C(=O)c2ccccc2)c1` (stereo not drawn) [Example 15, N-(3-benzoylphenyl) N-methyl 2-(3-pyridinyl)-4-thiazolidinecarboxamide dihydrochloride]: 0.62 µM; for `COc1cc(C(=O)c2cccc(N(C)C(=O)C3CSC(c4cccnc4)S3)c2)cc(OC)c1OC` (stereo not drawn) [Example 16, N-[3-(3,4,5-trimethoxybenzoyl)phenyl] N-methyl 2-(3-pyridinyl)-4-dithiolanecarboxamide hydrochloride]: 2.6 µM. The same measure for `O=C(Nc1cccc(C(=O)c2ccccc2)c1)NC1CSC(c2cccnc2)S1` (stereo not drawn) [Example 17a, N-(3-benzoylphenyl) N'-[2-(3-pyridinyl)dithiolan-4-yl] urea]: 1.3 µM. The same measure for `O=C(Nc1cccc(C(=O)c2ccccc2)c1)NC1CSC(c2cccnc2)S1` (stereo not drawn) [Example 17b, N-(3-benzoylphenyl) N'-[2-(3-pyridinyl)dithiolan-4-yl] urea]: 0.26 µM; for `COc1cc(C(=O)c2cccc(NC(=O)NC3CSC(c4cccnc4)S3)c2)cc(OC)c1OC` (stereo not drawn) [Example 18a, N-[3-(3,4,5-trimethoxybenzoyl)phenyl] N'-[2-(3-pyridinyl)dithiolan-4-yl] urea]: 0.65 µM; for `COc1cc(C(=O)c2cccc(NC(=O)NC3CSC(c4cccnc4)S3)c2)cc(OC)c1OC` (stereo not drawn) [Example 18b, N-[3-(3,4,5-trimethoxybenzoyl)phenyl] N'-[2-(3-pyridinyl)dithiolan-4-yl] urea]: 0.035 µM. On to `CN(C(=O)NC1CSC(c2cccnc2)S1)c1cccc(C(=O)c2ccccc2)c1` (stereo not drawn) [Example 19a, N-methyl-N-(3-benzoylphenyl) N'-[2-(3-pyridinyl)dithiolan-4-yl] urea], for which the Ki was 2.9 µM.

For the compound `CN(C(=O)NC1CSC(c2cccnc2)S1)c1cccc(C(=O)c2ccccc2)c1` (stereo not drawn) [Example 19b, N-methyl-N-(3-benzoylphenyl) N'-[2-(3-pyridinyl)dithiolan-4-yl] urea], the Ki is 7 µM. The same measure for `COc1cc(C(=O)c2cccc(N(C)C(=O)NC3CSC(c4cccnc4)S3)c2)cc(OC)c1OC` (stereo not drawn) [Example 20a, N-methyl-N-[3-(3,4,5-trimethoxybenzoyl)phenyl] N'-[2-(3-pyridinyl)dithiolan-4-yl] urea]: 0.26 µM. Turning to `COc1cc(C(=O)c2cccc(N(C)C(=O)NC3CSC(c4cccnc4)S3)c2)cc(OC)c1OC` (stereo not drawn) [Example 20b, N-methyl-N-[3-(3,4,5-trimethoxybenzoyl)phenyl] N'-[2-(3-pyridinyl)dithiolan-4-yl] urea], the Ki is 2.2 µM. The same measure for `O=C(c1ccccc1)c1cccc(NC(=O)C2CCC(c3cccnc3)N2)c1` (stereo not drawn) [Example 21, N-(3-benzoylphenyl)-2-(3-pyridyl)-5-pyrrolidinecarboxamide]: 0.78 µM.
